Measured values reported in US12473301B2, “Isoquinoline compounds for the treatment of cancer” (Genentech, Inc., priority 2018, dated 2025).

What follows are molecules tested against HPK1 (Homo sapiens (Human), UniProt Q92918, S171E/T165E) (assay: HPK1-FL HTRF Enzymatic Assay ("HTRF")). Details: HPK full length, ATP 1 mM.
Type: biochemical
Method: HPK1-FL HTRF Enzymatic Assay (“HTRF”)
HPK-FL enzyme phosphorylates Biotin-SLP-76 substrate in the presence of ATP at 1 mM and varying concentrations of test compound. Product is detected by FRET using Eu-anti-pSLP76 Ab and SA-XL665. Also see www.cisbio.com/HTRF for additional HTRF technology information.
Instrumentation: Echo555 compound dispenser; Agilent Bravo; Perkin Elmer Envision.
To a 384 well Proxiplate with 80 nL compound or DMSO spotted on was added 4 μl/well kinase mix. The mixture was preincubated for 30 minutes and then 4 μl/well substrate mix was added. The solution was incubated for 60 min and then 4 μl/well detection mix was added. The solution was incubated for another 60 min. The plates were then loaded onto a
Perkin Elmer Envision and the TR-FRET signal was measured at […] and 665 nm. A ratio of 665/620 was used to calculate the % activity at each concentration of compound.

HPK1, sequence (Q92918 whole entry T165E/S171E): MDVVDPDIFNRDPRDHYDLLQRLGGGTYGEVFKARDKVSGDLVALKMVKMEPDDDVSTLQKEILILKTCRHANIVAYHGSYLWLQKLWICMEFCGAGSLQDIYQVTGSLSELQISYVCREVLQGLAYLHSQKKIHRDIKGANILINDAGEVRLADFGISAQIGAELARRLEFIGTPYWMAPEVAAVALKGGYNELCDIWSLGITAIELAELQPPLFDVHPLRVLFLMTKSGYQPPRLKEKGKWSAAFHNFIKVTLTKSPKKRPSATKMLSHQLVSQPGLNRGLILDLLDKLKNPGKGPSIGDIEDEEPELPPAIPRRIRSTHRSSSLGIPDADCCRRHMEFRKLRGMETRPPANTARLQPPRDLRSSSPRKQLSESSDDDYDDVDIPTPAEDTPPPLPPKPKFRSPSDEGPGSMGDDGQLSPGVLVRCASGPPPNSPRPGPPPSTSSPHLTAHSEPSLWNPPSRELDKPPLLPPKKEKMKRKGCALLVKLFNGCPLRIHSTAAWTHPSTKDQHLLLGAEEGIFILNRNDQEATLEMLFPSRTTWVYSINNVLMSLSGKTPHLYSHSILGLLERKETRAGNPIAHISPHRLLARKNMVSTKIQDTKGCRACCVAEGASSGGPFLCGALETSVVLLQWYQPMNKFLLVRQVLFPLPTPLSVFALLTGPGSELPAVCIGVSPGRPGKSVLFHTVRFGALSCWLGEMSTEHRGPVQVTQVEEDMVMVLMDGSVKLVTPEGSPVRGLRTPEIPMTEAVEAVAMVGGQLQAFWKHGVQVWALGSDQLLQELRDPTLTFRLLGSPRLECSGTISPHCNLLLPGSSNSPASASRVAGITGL

Row | Structure (SMILES) | Ki [nM]
1 | Cc1c(-c2cc3cc(NC(=O)OCC4(F)CCNC4)ncc3cc2F)cnc2c1NCCO2 (racemic) [Compound 106, (3-Fluoropyrrolidin-3-yl)methyl (7-fluoro-6-(8-methyl-2,3-dihydro-1H-pyrido[2,3-b][1,4]oxazin-7-yl)isoquinolin-3-yl)carbamate] | 2.4
2 | Cc1c(-c2cc3cc(NC(=O)OCC4CCNC4)ncc3cc2F)cnc2c1NCCO2 (racemic) [Compound 107, Pyrrolidin-3-ylmethyl (7-fluoro-6-(8-methyl-2,3-dihydro-1H-pyrido[2,3-b][1,4]oxazin-7-yl)isoquinolin-3-yl)carbamate] | 2.1
3 | Cc1c(-c2cc3cc(NC(=O)OC4COC5(CCNC5)C4)ncc3cc2F)cnc2c1NCCO2 (racemic) [Compound 108, 1-Oxa-7-azaspiro[4.4]nonan-3-yl (7-fluoro-6-(8-methyl-2,3-dihydro-1H-pyrido[2,3-b][1,4]oxazin-7-yl)isoquinolin-3-yl)carbamate] | 4
4 | Cc1c(-c2cc3cc(NC(=O)OCC(C)N)ncc3cc2F)cnc2c1NCCO2 (racemic) [Compound 110, 2-Aminopropyl (7-fluoro-6-(8-methyl-2,3-dihydro-1H-pyrido[2,3-b][1,4]oxazin-7-yl)isoquinolin-3-yl)carbamate] | 29
5 | COC(C)CCOC(=O)Nc1cc2cc(-c3cnc4c(c3C)NCCO4)c(F)cc2cn1 (racemic) [Compound 114, 3-Methoxybutyl (7-fluoro-6-(8-methyl-2,3-dihydro-1H-pyrido[2,3-b][1,4]oxazin-7-yl)isoquinolin-3-yl)carbamate] | 1.5
6 | Cc1c(-c2cc3cc(NC(=O)OCC4CCCCO4)ncc3cc2F)cnc2c1NCCO2 (racemic) [Compound 116, (Tetrahydro-2H-pyran-2-yl)methyl (7-fluoro-6-(8-methyl-2,3-dihydro-1H-pyrido[2,3-b][1,4]oxazin-7-yl)isoquinolin-3-yl)carbamate] | 7.5
7 | Cc1c(-c2cc3cc(NC(=O)OCC45CC4CCN5)ncc3cc2F)cnc2c1NCCO2 (racemic) [Compound 122, (2-Azabicyclo[3.1.0]hexan-1-yl)methyl (7-fluoro-6-(8-methyl-2,3-dihydro-1H-pyrido[2,3-b][1,4]oxazin-7-yl)isoquinolin-3-yl)carbamate] | 24
8 | Cc1c(-c2cc3cc(NC(=O)OC4CCC45CCNC5)ncc3cc2F)cnc2c1NCCO2 (racemic) [Compound 123, 6-Azaspiro[3.4]octan-1-yl (7-fluoro-6-(8-methyl-2,3-dihydro-1H-pyrido[2,3-b][1,4]oxazin-7-yl)isoquinolin-3-yl)carbamate] | 7.5
9 | Cc1c(-c2cc3cc(NC(=O)O[C@H]4CCCC[C@@H]4C#N)ncc3c(Cl)c2F)cnc2c1NCCO2 (single isomer, unassigned) [Compound 126a] | 492
10 | Cc1c(-c2cc3cc(NC(=O)O[C@@H]4CCCC[C@H]4C#N)ncc3c(Cl)c2F)cnc2c1NCCO2 (single isomer, unassigned) [Compound 126b] | 0.945
11 | Cc1c(-c2cc3cc(NC(=O)OCC4CC4)ncc3cc2F)cnc2c1NCCO2 [Compound 101, Cyclopropylmethyl (7-fluoro-6-(8-methyl-2,3-dihydro-1H-pyrido[2,3-b][1,4]oxazin-7-yl)isoquinolin-3-yl)carbamate] | 2.7
12 | Cc1c(N)cncc1-c1cc2cc(NC(=O)OCC3CC3)ncc2cc1F [Compound 102, Cyclopropylmethyl (6-(5-amino-4-methylpyridin-3-yl)-7-fluoroisoquinolin-3-yl)carbamate] | 45
13 | Cc1c(-c2cc3cc(NC(=O)OC4CCOCC4)ncc3cc2F)cnc2c1NCCO2 [Compound 103, Tetrahydro-2H-pyran-4-yl (7-fluoro-6-(8-methyl-2,3-dihydro-1H-pyrido[2,3-b][1,4]oxazin-7-yl)isoquinolin-3-yl)carbamate] | 5
14 | CC(=O)N1CC(OC(=O)Nc2cc3cc(-c4cnc5c(c4C)NCCO5)c(F)cc3cn2)C1 [Compound 104, 1-Acetylazetidin-3-yl (7-fluoro-6-(8-methyl-2,3-dihydro-1H-pyrido[2,3-b][1,4]oxazin-7-yl)isoquinolin-3-yl)carbamate] | 2.9
15 | CNC(=O)N1CC(OC(=O)Nc2cc3cc(-c4cnc5c(c4C)NCCO5)c(F)cc3cn2)C1 [Compound 105, 1-(Methylcarbamoyl)azetidin-3-yl (7-fluoro-6-(8-methyl-2,3-dihydro-1H-pyrido[2,3-b][1,4]oxazin-7-yl)isoquinolin-3-yl)carbamate] | 0.91
16 | Cc1c(-c2cc3cc(NC(=O)OC[C@H]4CCCN4)ncc3cc2F)cnc2c1NCCO2 [Compound 109a, (R)-Pyrrolidin-2-ylmethyl (7-fluoro-6-(8-methyl-2,3-dihydro-1H-pyrido[2,3-b][1,4]oxazin-7-yl)isoquinolin-3-yl)carbamate] | 25
17 | Cc1c(-c2cc3cc(NC(=O)OCC4(F)CCNCC4)ncc3cc2F)cnc2c1NCCO2 [Compound 111, (4-Fluoropiperidin-4-yl)methyl (7-fluoro-6-(8-methyl-2,3-dihydro-1H-pyrido[2,3-b][1,4]oxazin-7-yl)isoquinolin-3-yl)carbamate] | 4
18 | Cc1c(-c2cc3cc(NC(=O)OCCN)ncc3cc2F)cnc2c1NCCO2 [Compound 112, 2-Aminoethyl (7-fluoro-6-(8-methyl-2,3-dihydro-1H-pyrido[2,3-b][1,4]oxazin-7-yl)isoquinolin-3-yl)carbamate] | 32
19 | Cc1c(-c2cc3cc(NC(=O)OCCS(C)(=O)=O)ncc3cc2F)cnc2c1NCCO2 [Compound 117, 2-(Methylsulfonyl)ethyl (7-fluoro-6-(8-methyl-2,3-dihydro-1H-pyrido[2,3-b][1,4]oxazin-7-yl)isoquinolin-3-yl)carbamate] | 6.2
20 | Cc1c(-c2cc3cc(NC(=O)OCC(F)(F)F)ncc3cc2F)cnc2c1NCCO2 [Compound 118, 2,2,2-Trifluoroethyl (7-fluoro-6-(8-methyl-2,3-dihydro-1H-pyrido[2,3-b][1,4]oxazin-7-yl)isoquinolin-3-yl)carbamate] | 205
21 | Cc1c(-c2cc3cc(NC(=O)OCCc4ccccn4)ncc3cc2F)cnc2c1NCCO2 [Compound 119, 2-(Pyridin-2-yl)ethyl (7-fluoro-6-(8-methyl-2,3-dihydro-1H-pyrido[2,3-b][1,4]oxazin-7-yl)isoquinolin-3-yl)carbamate] | 9.5
22 | Cc1c(-c2cc3cc(NC(=O)OCC(C)(C)C)ncc3cc2F)cnc2c1NCCO2 [Compound 120, Neopentyl (7-fluoro-6-(8-methyl-2,3-dihydro-1H-pyrido[2,3-b][1,4]oxazin-7-yl)isoquinolin-3-yl)carbamate] | 4.3
23 | Cc1c(-c2cc3cc(NC(=O)OC4CC5CC4CN5)ncc3cc2F)cnc2c1NCCO2 (stereo not shown) [Compound 121, 2-Azabicyclo[2.2.1]heptan-5-yl (7-fluoro-6-(8-methyl-2,3-dihydro-1H-pyrido[2,3-b][1,4]oxazin-7-yl)isoquinolin-3-yl)carbamate] | 8.7
24 | Cc1c(-c2cc3cc(NC(=O)OCCC4C5CNCC45)ncc3cc2F)cnc2c1NCCO2 (stereo not shown) [Compound 124, 2-(3-Azabicyclo[3.1.0]hexan-6-yl)ethyl (7-fluoro-6-(8-methyl-2,3-dihydro-1H-pyrido[2,3-b][1,4]oxazin-7-yl)isoquinolin-3-yl)carbamate] | 0.44

Now from value to molecule:

Row | Ki [nM] | Structure (SMILES)
25 | 0.805 | Cc1c(-c2cc3cc(NC(=O)O[C@@H]4CCC[C@H]4C#N)ncc3c(Cl)c2F)cnc2c1NCCO2 (single isomer, unassigned) [Compound 127a]
26 | 3.75 | Cc1c(-c2cc3cc(NC(=O)O[C@H]4CCC[C@@H]4C#N)ncc3c(Cl)c2F)cnc2c1NCCO2 (single isomer, unassigned) [Compound 127b]
27 | 2.5 | Cc1c(-c2cc3cc(NC(=O)O[C@@H]4CCC[C@H]4C#N)ncc3cc2F)cnc2c1NCCO2 (single isomer, unassigned) [Compound 128a]
28 | 0.78 | Cc1c(-c2cc3cc(NC(=O)O[C@H]4CCC[C@@H]4C#N)ncc3cc2F)cnc2c1NCCO2 (single isomer, unassigned) [Compound 128b]
29 | 0.95 | Cc1c(-c2cc3cc(NC(=O)NC(C)c4cnn(C)c4)ncc3cc2F)cnc2c1NCCO2 (single isomer, unassigned) [Compound 201a]
30 | 10 | Cc1c(-c2cc3cc(NC(=O)NC(C)c4cnn(C)c4)ncc3cc2F)cnc2c1NCCO2 (single isomer, unassigned) [Compound 201b]
31 | 4 | Cc1c(-c2cc3cc(NC(=O)NC(C)CC#N)ncc3cc2F)cnc2c1NCCO2 (single isomer, unassigned) [Compound 203a]
32 | 1.1 | Cc1c(-c2cc3cc(NC(=O)NC(C)CC#N)ncc3cc2F)cnc2c1NCCO2 (single isomer, unassigned) [Compound 203b]
33 | 0.88 | Cc1c(-c2cc3cc(NC(=O)NC4CCOC4)ncc3cc2F)cnc2c1NCCO2 (single isomer, unassigned) [Compound 206a]
34 | 2.5 | Cc1c(-c2cc3cc(NC(=O)NC4CCOC4)ncc3cc2F)cnc2c1NCCO2 (single isomer, unassigned) [Compound 206b]
35 | 0.9 | CC[C@@H]1[C@@H](C(=O)Nc2cc3cc(-c4cnc5c(c4C)NCCO5)c(F)cc3cn2)[C@@H]1c1cnn(C)c1 (single isomer, unassigned) [Compound 301a]
36 | 8 | CC[C@H]1[C@H](C(=O)Nc2cc3cc(-c4cnc5c(c4C)NCCO5)c(F)cc3cn2)[C@H]1c1cnn(C)c1 (single isomer, unassigned) [Compound 301b]
37 | 1.8 | CC[C@H]1[C@@H](C(=O)Nc2cc3cc(-c4cnc5c(c4C)NCCO5)c(F)cc3cn2)[C@@H]1c1cnn(C)c1 (single isomer, unassigned) [Compound 301d]
